Experimental data: US10183015B2, “Heterocyclic compounds and methods of use” (Medivation Technologies LLC, priority 2015, dated 2019)
Where “and” joins values, the source holds several entries; their conditions need not be identical. Equal values may be shown once.

Key:
Format in all cases: in vivo
[1] = tested on: 60% high fat Paigen diet induced NASH mouse model; test: Short-term Paigen-diet NASH mouse model: NAFLD (NAS) score histopathology; set-up: NAS score: total / NAS score: steatose / NAS score: inflammation / NAS score: fibrosis / NAS score: hepatocyte ballooning: scale not given here
Protocol: To investigate whether Compound #37 prevents the development of pathology associated with NASH and steatosis in an acute exploratory disease model, a study was conducted using a diet-induced acute liver steatosis model in mice. […]
After acclimation, 8-week old male C57Bl/6J mice (Charles River) weighing about 25 g were randomized in 4 groups according their body weight and treated once daily around noon by oral gavage with vehicle, […] (2-hydroxypropyl)-β-cyclodextrin (HP-β-CD) (n=10); Group 2: Compound #37, 5 mg/kg (n=10) Group 3: Compound #37, 20 mg/kg (n=10) Group 4: Compound #37, 40 mg/kg (n=10). During the treatment period, body weight and food intake (measured over 24h) were measured 3 times per week and once a week, respectively. During the acclimation, all mice were fed a standard diet (Special Diets Services RM1 (E), product no. 801492) and tap water ad libitum. After the acclimation period, mice were fed until the end of the experiment with a 60% high fat Paigen diet (60 kcal % fat, 1.25% cholesterol, and 0.5% cholate; D11061901, Research Diet) and tap water ad libitum.
NAFLD score analysis. A 0.5 cm^3 piece of liver was fixed in 10% formalin for 48-72h, stored in ethanol 70° at 4° C., and processed for eosin/hematoxylin staining and NAFLD score analysis. One section (thickness 3-5 μm) per block was deposited on Superfrost+slides for hematoxylin-eosin staining. Individual slides having a single hepatic lobe section stained with H&E were digitized using a Nanozoomer from Hamamatsu. Sections were evaluated with knowledge of groups. Each section was evaluated and individually scored. A NAFLD scoring system (NAS) adapted from Kleiner et al. (Hepatology 41, 1313-21, 2005), Wu et al. (BMC Vet. Res. 10, 162, 2014), and Lee et al. (J. Lipid Res. 48, 1885-96, 2007). A total of four variables were qualitatively assessed and ranked with a score: (1) hepatocellular steatosis, (2) liver inflammation, (3) lobular fibrosis, and (4) hepatocyte ballooning.

[2] = tested on: diet-induced NASH obese insulin resistant mice; test: DIN mouse model: liver oil red O staining (% labeling)
Protocol: (§1) Male C57Bl/6J mice (8 weeks old) were housed in enriched ventilated cages (31×12.5×12.7 cm) throughout the experimental phase. Animals' cages litters were changed at least once a week. Animal were housed 5 per cage on inverted 12-hour light cycle (at 09:00 am lights off), 22±2° C. and 55±10% relative humidity. The acclimation period was 20 days. During the acclimation period, all mice were fed a standard diet (RM1 (E) 801492, SDS) and tap water ad libitum. After the acclimation period, mice were fed with the DIN diet (60% fat, cholesterol enriched) and fructose-enriched tap water ad libitum until the end of the experiment.
(§2) At 6 weeks of diet, mice were 4-hour fasted (09:00 am to 1:00 pm) and blood (150 μl/EDTA) was collected at 01:00 pm by retro-orbital bleeding under isoflurane anesthesia. Mice were then allocated in 2 homogenous groups (n=12/group) according to their plasma levels of ALT (average levels: 685U/L), AST (average levels: 627U/L) and HOMA-IR index (average value: 4.7), into 2 homogenous groups (see values at day 0 in Tables 15A and 15B ALT/AST and Tables 16A and 16B for HOMA-IR). Mice were then treated once daily by oral gavage with vehicle (Group 1) or Compound #37 at 20 mg/kg (Group 2) for 70 days.
Slides having a single hepatic lobe section stained with H&E and […] were digitized using a Nanozoomer from Hamamatsu. Sections were evaluated with knowledge of groups. […]

SREBP1C = test: DIN mouse model: hepatic SREBP1C gene expression; set-up: key to 2^DDct: expression relative to vehicle group, normalized to 18S; conditions: 20 mg/kg group; for 18S: Gene Expression: SREBP1C table, 18S reference; for 2^DDct / DDct / Dct / SREBP1C: Gene Expression: SREBP1C
Protocol: Gene expression analysis. Hepatic expression levels of genes involved in lipid metabolism (FAS, SREBP1, ACC1, SCD1), cholesterol metabolism (HMG-CoAR, LDLR), SREBP proteolysis (SCAP, INSIG1), ER stress (PERK), oxidative stress (NRF2), inflammation (MCP-1), and fibrosis (collagen 1α1) were quantified by RTqPCR. Expression level was normalized to 18S gene expression and relative expression to vehicle group was calculated with the […] method.
as §1, §2
Hepatic expression levels of genes involved in lipid (FAS, SREBP1, ACC1, SCD1), cholesterol metabolism (HMG-CoAR, LDLR), in SREBP proteolysis (SCAP, INSIG1), in ER stress (PERK), oxidative stress (NRF2), and inflammation (MCP-1) were not changed. However, expression of collagen 1α1, involved in liver fibrosis, was reduced by 66% in mice treated with Compound #37 (p<0.05 vs. vehicle).

[3] = 5 mg/kg, 21 days, group mean, n 10
[4] = 20 mg/kg, 21 days, group mean, n 6
[5] = 40 mg/kg, 9 days, group mean, n 4

Compound: CC(C)Cc1cc(-c2nc(-c3ccc(NS(=O)(=O)C(F)(F)F)cc3Cl)cs2)ccn1 [Compound 37, N-(3-chloro-4-(2-(2-isobutylpyridin-4-yl)thiazol-4-yl)phenyl)-1,1,1-trifluoromethanesulfonamide]
- animals with Grade 1 hepatocellular steatosis ([1]; 5 mg/kg, 21 days): 9/10
- animals with grade-3 inflammation ([1]; 5 mg/kg, 21 days): 4/10
- animals with limited periportal fibrosis (mostly Grade 1) ([1]; 5 mg/kg, 21 days): 10/10
- NAS score: fibrosis [1, 3]: 1.2
- NAS score: hepatocyte ballooning [1, 3]: 0.3
- NAS score: inflammation [1, 3]: 2
- NAS score: steatose [1, 3]: 1.1
- NAS score: total [1, 3]: 4.6
- NAS score: total ([1]; 5 mg/kg, 21 days, individual animals): 4 (2×) and 5 (4×) and 3 (2×) and 6 (2×)
- animals with Grade 1 hepatocellular steatosis ([1]; 20 mg/kg, 21 days): 3/6
- animals with grade-3 inflammation ([1]; 20 mg/kg, 21 days): 1/6
- animals with limited periportal fibrosis (mostly Grade 1) ([1]; 20 mg/kg, 21 days): 3/6
- NAS score: fibrosis [1, 4]: 0.5
- NAS score: hepatocyte ballooning [1, 4]: 0
- NAS score: inflammation [1, 4]: 1.67
- NAS score: steatose [1, 4]: 0.5
- NAS score: total [1, 4]: 2.67
- NAS score: total ([1]; 20 mg/kg, 21 days, individual animals): 2 (2×) and 3 (2×) and 5 and 1
- NAS score: fibrosis [1, 5]: 0
- NAS score: hepatocyte ballooning [1, 5]: 1
- NAS score: inflammation [1, 5]: 0
- NAS score: steatose [1, 5]: 2
- NAS score: total [1, 5]: 3
- NAS score: total ([1]; 40 mg/kg, 9 days, individual animals): 3
- O red Oil labeling ([2]; 20 mg/kg group, mean, n 11): 12.1%
- O red Oil labeling ([2]; 20 mg/kg, individual animals): 12.9% and 15.1% and 0.9% and 18.6% and 19.3% and 21.3% and 0.3% and 8.3% and 19.5% and 13.0% and 4.2%
- 18S (SREBP1C; individual animal, 20 mg/kg): 12.55 (2×) and 12.84 and 12.43 and 12.35 (2×) and 12.59 and 11.73 and 12.51 and 11.5 and 11.55
- 18S (SREBP1C; mean, n 11): 12.3
- 2^DDct (SREBP1C; individual animal): 1.30 and 1.21 and 0.41 and 0.49 and 0.69 and 1.10 and 0.99 and 1.37 and 0.36 and 0.47 and 2.13
- DDct (SREBP1C; individual animal): −0.38 and −0.27 and 1.30 and 1.04 and 0.54 and −0.14 and 0.01 and −0.45 and 1.46 and 1.10 and −1.09
- Dct (SREBP1C; individual animal): 12.98 and 13.09 and 14.66 and 14.4 and 13.9 and 13.22 and 13.37 and 12.91 and 14.82 and 14.46 and 12.27
- SREBP1C (SREBP1C; individual animal): 25.53 and 25.64 and 27.5 and 26.83 and 26.25 and 25.81 and 25.1 and 25.42 and 26.32 and 26.01 and 24.62
- 2^DDct (SREBP1C; mean, n 11): 0.96
- DDct (SREBP1C; mean, n 11): 0.28
- Dct (SREBP1C; mean, n 11): 13.6
- SREBP1C (SREBP1C; mean, n 11): 25.9
